The values below come from patent US8273724B2, “Melanoma antigens and their use in diagnostic and therapeutic methods” (The United States of America, as represented by the …, priority 1994, dated 2012).

The subject of test [1] is T2 cell lines preincubated with peptide. Nature of the test: Recognition of modified peptides by natural epitope (M9-2, G9-154, G9-209, G9-280) reactive T-cells, 51Cr release on peptide-pulsed T2 cells (Example 5). The format is cell-based, human. The procedure: Assessment of antigen recognition by CTL. ^51Cr release cytotoxic assays were performed to detect the recognition of peptide and melanoma cells by CTL. To analyze peptide recognition, T2 cell lines were preincubated for 2 h at 37° C. with 1 ug/ml peptide, washed and used as target cells in a ^51Cr release cytotoxic assay. The melanoma lines 624mel was established in our laboratory (See Example 1).
In order to make more immunogenic peptides for induction of anti-melanoma T-cells than natural melanoma epitopes, a variety of peptides in which at least 1 amino acid was changed based on consensus motifs in peptides binding to a specific MHC Class I allele Falk, et al. (1991) Nature 351:290; Kubo et al. (1994) J. Immunol 152:3913; Parker, K. et al. (1992) Journal of Immunology 149:3580; Ruppert, J. et al. (1993) Cell 74:929-937) (Tables 14, 15, 16, and 17). […] By changing amino acid at the 1st, 2nd, 3rd or 9th positions which are important for HLA-A2 binding to the peptide, but less important for recognition by T-cell receptors, artificial peptides which can bind to HLA-A2.1 with higher affinity and still be recognized by natural epitope specific T-cells may be generated.

In a further test the target is HLA-A2.1 (Homo sapiens, UniProt P04439, D140Y/D185E/D98H/E176V/E277Q/G131W/G231S/I119V/I121R/I166T/I218V/L300P/L318F/N151K/N90K/P208A/P217A/Q86G/Q94H/R138H/R169H/T345S). Nature of the test: HLA-A2.1 binding assay of modified peptides, inhibition of radiolabeled Hbc 18-27 (Example 5). The note with it: for IC50: modified gp100 G9-154 peptides, read-out: Binding affinity to HLA-A2.1.

Where a SMILES comes first, the peptide text is derived from it.

For `CC(C)[C@H](NC(=O)[C@H](CCC(N)=O)NC(=O)[C@H](Cc1c[nH]c2ccccc12)NC(=O)[C@H](Cc1ccc(O)cc1)NC(=O)[C@H](CCC(N)=O)NC(=O)CNC(=O)[C@H](Cc1ccccc1)NC(=O)[C@@H](NC(=O)[C@@H](N)CCCCN)[C@@H](C)O)C(=O)O` [G9-154-3F] (H-KTFGQYWQV-OH; N-terminus and C-terminus assumed), the “Recognition by G9-154 reactive T-cell” value in test [1] is given as “+ (+, recognized)”. Besides, the IC50 on HLA-A2.1 came out at 21 nM.

On to `CC(C)[C@H](NC(=O)[C@H](CCC(N)=O)NC(=O)[C@H](Cc1c[nH]c2ccccc12)NC(=O)[C@H](Cc1ccc(O)cc1)NC(=O)[C@H](CCC(N)=O)NC(=O)CNC(=O)[C@H](Cc1ccc(O)cc1)NC(=O)[C@@H](NC(=O)[C@@H](N)CCCCN)[C@@H](C)O)C(=O)O` [G9-154-3Y] (H-KTYGQYWQV-OH; N-terminus and C-terminus assumed), for which, in test [1], the “Recognition by G9-154 reactive T-cell” value was “+ (+, recognized)”. Also, the IC50 on HLA-A2.1 was determined as 30 nM.

Consider `CC(C)[C@H](NC(=O)[C@H](CO)NC(=O)[C@H](Cc1ccccc1)NC(=O)[C@@H]1CCCN1C(=O)[C@@H](NC(=O)[C@H](CCC(N)=O)NC(=O)[C@H](CC(=O)O)NC(=O)[C@@H](NC(=O)[C@@H](N)Cc1ccccc1)[C@@H](C)O)C(C)C)C(=O)O` [G9-209-1F], for which, in test [1], the “Recognition by G9-209 reactive T-cell” value is “+ (+, recognized)” and the “recognition by the original melanoma reactive T-cells” value was “recognized”. Also, the “binding affinity to HLA-A2.1 compared with the natural epitope” value at HLA-A2.1 is “higher binding affinity”.

For `CC(C)C[C@H](NC(=O)[C@@H](N)Cc1c[nH]c2ccccc12)C(=O)N[C@@H](CC(=O)O)C(=O)N[C@@H](CCC(N)=O)C(=O)N[C@H](C(=O)N1CCC[C@H]1C(=O)N[C@@H](Cc1ccccc1)C(=O)N[C@@H](CO)C(=O)N[C@H](C(=O)O)C(C)C)C(C)C` [G9-209-1W2L], in test [1], the “Recognition by G9-209 reactive T-cell” value is on record as “+ (+, recognized)” and the “recognition by the original melanoma reactive T-cells” value was “recognized”. Also, the “binding affinity to HLA-A2.1 compared with the natural epitope” value at HLA-A2.1 is “higher binding affinity”.

For `CC(C)C[C@H](NC(=O)[C@@H](N)Cc1ccc(O)cc1)C(=O)N[C@@H](CC(=O)O)C(=O)N[C@@H](CCC(N)=O)C(=O)N[C@H](C(=O)N1CCC[C@H]1C(=O)N[C@@H](Cc1ccccc1)C(=O)N[C@@H](CO)C(=O)N[C@H](C(=O)O)C(C)C)C(C)C` [G9-209-1Y2L], in test [1], the “Recognition by G9-209 reactive T-cell” value is on record as “+ (+, recognized)” and the “recognition by the original melanoma reactive T-cells” value is on record as “recognized”. Besides, the “binding affinity to HLA-A2.1 compared with the natural epitope” value on HLA-A2.1 is recorded as “higher binding affinity”.

Consider `CC(C)[C@H](NC(=O)[C@H](CO)NC(=O)[C@H](Cc1ccccc1)NC(=O)[C@@H]1CCCN1C(=O)[C@@H](NC(=O)[C@H](CCC(N)=O)NC(=O)[C@H](CC(=O)O)NC(=O)[C@@H](NC(=O)[C@@H](N)Cc1ccc(O)cc1)[C@@H](C)O)C(C)C)C(=O)O` [G9-209-1Y], for which, in test [1], the “Recognition by G9-209 reactive T-cell” value is “+ (+, recognized)” and the “recognition by the original melanoma reactive T-cells” value is “recognized”. In addition, the “binding affinity to HLA-A2.1 compared with the natural epitope” value on HLA-A2.1 is recorded as “higher binding affinity”.

Consider `CC[C@H](C)[C@H](N)C(=O)N[C@H](C(=O)N[C@@H](CC(=O)O)C(=O)N[C@@H](CCC(N)=O)C(=O)N[C@H](C(=O)N1CCC[C@H]1C(=O)N[C@@H](Cc1ccccc1)C(=O)N[C@@H](CO)C(=O)N[C@H](C(=O)O)C(C)C)C(C)C)[C@@H](C)CC` [G9-209-2I], for which, in test [1], the “Recognition by G9-209 reactive T-cell” value is on record as “+ (+, recognized)” and the “recognition by the original melanoma reactive T-cells” value is “recognized”. The “binding affinity to HLA-A2.1 compared with the natural epitope” value at HLA-A2.1 is recorded as “higher binding affinity”.

As to `CC[C@H](C)[C@H](N)C(=O)N[C@@H](CC(C)C)C(=O)N[C@@H](CC(=O)O)C(=O)N[C@@H](CCC(N)=O)C(=O)N[C@H](C(=O)N1CCC[C@H]1C(=O)N[C@@H](Cc1ccccc1)C(=O)N[C@@H](CO)C(=O)N[C@H](C(=O)O)C(C)C)C(C)C` [G9-209-2L], in test [1], the “Recognition by G9-209 reactive T-cell” value is recorded as “+ (+, recognized)” and the “recognition by the original melanoma reactive T-cells” value is given as “recognized”. Besides, the “binding affinity to HLA-A2.1 compared with the natural epitope” value on HLA-A2.1 is “higher binding affinity”.
